Series [1] has as its target Histone acetyltransferase KAT2A (Homo sapiens) (UniProt Q92830). Briefly: Inhibition of recombinant GCN5 (unknown origin).
The target of series [2] is T1, Histone acetyltransferase p300 (Homo sapiens, UniProt Q09472). Briefly: Noncompetitive inhibition of P300 (unknown origin) using acetyl CoA as substrate after 15 mins by double reciprocal plot analysis.
Series [3] addresses T1, Histone acetyltransferase p300. Briefly: Inhibition of P300 in human U937 cells assessed as reduction in H3K9 histone acetylation at 100 uM by immunoblotting analysis. The series is classed as cell-based. To be noted: U-937, TDE = time-dependent effect.
A short description of series [4]: Stability of the compound in PBS at 25 degC after 2 mins to 24 hrs by HPLC analysis. The series is classed as physicochemical. To be noted: buffer.
In series [5] the target is T1, Histone acetyltransferase p300. Briefly: Reversible inhibition of P300 (unknown origin).
Series [6] shares this target. Briefly: Inhibition of P300 in human U937 cells assessed as reduction in H4K5 histone acetylation at 100 uM by immunoblotting analysis. The series is classed as cell-based. To be noted: U-937, TDE = time-dependent effect.
The target in another series is CREB-binding protein (Homo sapiens, UniProt Q92793). In words: Inhibition of recombinant CBP (unknown origin).
Chain of CREB-binding protein (Q92793 whole entry): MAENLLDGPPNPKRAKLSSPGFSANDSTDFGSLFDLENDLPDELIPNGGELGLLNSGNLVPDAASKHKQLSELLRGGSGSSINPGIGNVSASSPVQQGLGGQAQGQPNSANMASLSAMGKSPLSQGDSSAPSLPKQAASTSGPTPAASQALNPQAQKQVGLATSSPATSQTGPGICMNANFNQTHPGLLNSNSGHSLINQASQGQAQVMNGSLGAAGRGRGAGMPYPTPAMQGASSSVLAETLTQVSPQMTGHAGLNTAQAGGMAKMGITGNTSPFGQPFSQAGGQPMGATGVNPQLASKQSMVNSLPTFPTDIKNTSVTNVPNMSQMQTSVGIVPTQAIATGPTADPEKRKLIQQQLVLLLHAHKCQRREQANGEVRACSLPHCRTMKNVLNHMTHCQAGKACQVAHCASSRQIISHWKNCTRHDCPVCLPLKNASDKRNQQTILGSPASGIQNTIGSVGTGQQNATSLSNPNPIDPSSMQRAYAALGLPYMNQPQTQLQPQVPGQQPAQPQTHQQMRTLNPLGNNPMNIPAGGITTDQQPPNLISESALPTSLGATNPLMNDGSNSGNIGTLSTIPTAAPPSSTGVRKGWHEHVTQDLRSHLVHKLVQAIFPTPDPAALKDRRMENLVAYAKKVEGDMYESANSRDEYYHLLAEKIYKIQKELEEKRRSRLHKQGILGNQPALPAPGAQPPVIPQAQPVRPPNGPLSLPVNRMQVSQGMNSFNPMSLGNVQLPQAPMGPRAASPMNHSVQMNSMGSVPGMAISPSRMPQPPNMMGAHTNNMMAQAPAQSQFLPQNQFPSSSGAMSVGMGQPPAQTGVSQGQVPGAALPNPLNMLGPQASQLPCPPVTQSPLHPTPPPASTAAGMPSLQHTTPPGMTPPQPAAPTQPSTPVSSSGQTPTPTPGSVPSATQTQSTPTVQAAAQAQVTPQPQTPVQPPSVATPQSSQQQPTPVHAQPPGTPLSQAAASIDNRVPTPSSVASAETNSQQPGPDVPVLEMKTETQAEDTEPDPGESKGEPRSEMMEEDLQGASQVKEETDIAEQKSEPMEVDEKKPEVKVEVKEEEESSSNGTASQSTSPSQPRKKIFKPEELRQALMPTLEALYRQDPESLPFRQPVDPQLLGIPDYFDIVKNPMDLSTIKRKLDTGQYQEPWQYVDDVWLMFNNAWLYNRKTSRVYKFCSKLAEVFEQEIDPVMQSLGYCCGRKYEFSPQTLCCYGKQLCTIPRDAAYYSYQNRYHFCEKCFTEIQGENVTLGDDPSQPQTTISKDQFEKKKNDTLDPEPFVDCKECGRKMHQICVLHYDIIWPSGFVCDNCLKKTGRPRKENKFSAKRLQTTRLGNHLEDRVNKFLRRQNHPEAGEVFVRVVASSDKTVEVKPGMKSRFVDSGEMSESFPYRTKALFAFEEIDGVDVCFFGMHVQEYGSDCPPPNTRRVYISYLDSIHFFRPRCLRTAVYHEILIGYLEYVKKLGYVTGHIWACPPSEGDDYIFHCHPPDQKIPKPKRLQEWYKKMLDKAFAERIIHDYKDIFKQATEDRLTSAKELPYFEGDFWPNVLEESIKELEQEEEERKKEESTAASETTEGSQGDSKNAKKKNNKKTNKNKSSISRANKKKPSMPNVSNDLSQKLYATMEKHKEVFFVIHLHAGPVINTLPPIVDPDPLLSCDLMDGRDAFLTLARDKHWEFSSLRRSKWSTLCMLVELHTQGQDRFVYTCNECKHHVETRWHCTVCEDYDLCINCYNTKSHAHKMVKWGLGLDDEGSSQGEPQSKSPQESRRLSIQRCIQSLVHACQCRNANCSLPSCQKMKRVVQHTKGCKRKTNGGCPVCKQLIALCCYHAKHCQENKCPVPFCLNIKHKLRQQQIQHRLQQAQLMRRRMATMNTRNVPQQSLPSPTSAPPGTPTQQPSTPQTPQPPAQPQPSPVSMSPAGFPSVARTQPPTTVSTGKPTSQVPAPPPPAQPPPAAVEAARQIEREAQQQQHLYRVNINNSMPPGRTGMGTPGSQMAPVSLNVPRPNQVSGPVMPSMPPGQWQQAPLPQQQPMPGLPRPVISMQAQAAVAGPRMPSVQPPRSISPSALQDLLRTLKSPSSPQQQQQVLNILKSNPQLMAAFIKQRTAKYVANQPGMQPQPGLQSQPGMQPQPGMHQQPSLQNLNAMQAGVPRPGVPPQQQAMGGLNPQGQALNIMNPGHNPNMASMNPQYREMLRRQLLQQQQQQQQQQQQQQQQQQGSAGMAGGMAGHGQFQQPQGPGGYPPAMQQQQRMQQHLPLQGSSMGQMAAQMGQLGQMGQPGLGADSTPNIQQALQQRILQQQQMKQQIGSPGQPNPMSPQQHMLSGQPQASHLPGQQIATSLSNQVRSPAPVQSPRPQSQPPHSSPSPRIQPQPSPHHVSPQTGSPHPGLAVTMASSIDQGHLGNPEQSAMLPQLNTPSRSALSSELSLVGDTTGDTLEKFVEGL
A short description of series [7]: Cell cycle arrest in human U937 cells assessed as accumulation at G0/G1 phase at 100 uM after 72 hrs by propidium iodide staining-based FACS analysis. To be noted: U-937. The series is classed as functional.
Series [8] addresses Histone acetyltransferase KAT2B (Homo sapiens, UniProt Q92831). In words: Inhibition of recombinant PCAF (unknown origin).
The nature of series [9]: Apparent permeability of the compound at RT after 24 hrs by PAMPA. The series is classed as physicochemical.
Series [10] in a line: Cytotoxicity against human U937 cells assessed as cell viability at 10 to 100 uM after 24 hrs by MTT assay. The series is classed as cell-based. Conditions: u-937, 24 h.
Series [11] in a line: Cell cycle arrest in human U937 cells assessed as increase in hypodiploid nuclei level at 100 uM after 72 hrs by Nicoletti method. The series is classed as functional, cell-based. To be noted: U-937.
Series [12] can be described thus: Induction of beta-mercaptoethanol adduct formation in PBS after 30 mins to 24 hrs by HPLC analysis.
Series [13] has as its target T1, Histone acetyltransferase p300. Briefly: Noncompetitive inhibition of P300 (unknown origin) using biotinylated H3 as substrate after 15 mins by double reciprocal plot analysis.
Series [14] has the same target. Briefly: Inhibition of recombinant P300 (unknown origin).

The source of these data is ChEMBL document CHEMBL3421539, “A novel cell-permeable, selective, and noncompetitive inhibitor of KAT3 histone acetyltransferases from a combined molecular pruning/classical isosterism approach” (J Med Chem, 2015).

Activity calls are given as the source filed them. The rule behind the calls is not given here.

T1 sequence (Q09472 whole entry): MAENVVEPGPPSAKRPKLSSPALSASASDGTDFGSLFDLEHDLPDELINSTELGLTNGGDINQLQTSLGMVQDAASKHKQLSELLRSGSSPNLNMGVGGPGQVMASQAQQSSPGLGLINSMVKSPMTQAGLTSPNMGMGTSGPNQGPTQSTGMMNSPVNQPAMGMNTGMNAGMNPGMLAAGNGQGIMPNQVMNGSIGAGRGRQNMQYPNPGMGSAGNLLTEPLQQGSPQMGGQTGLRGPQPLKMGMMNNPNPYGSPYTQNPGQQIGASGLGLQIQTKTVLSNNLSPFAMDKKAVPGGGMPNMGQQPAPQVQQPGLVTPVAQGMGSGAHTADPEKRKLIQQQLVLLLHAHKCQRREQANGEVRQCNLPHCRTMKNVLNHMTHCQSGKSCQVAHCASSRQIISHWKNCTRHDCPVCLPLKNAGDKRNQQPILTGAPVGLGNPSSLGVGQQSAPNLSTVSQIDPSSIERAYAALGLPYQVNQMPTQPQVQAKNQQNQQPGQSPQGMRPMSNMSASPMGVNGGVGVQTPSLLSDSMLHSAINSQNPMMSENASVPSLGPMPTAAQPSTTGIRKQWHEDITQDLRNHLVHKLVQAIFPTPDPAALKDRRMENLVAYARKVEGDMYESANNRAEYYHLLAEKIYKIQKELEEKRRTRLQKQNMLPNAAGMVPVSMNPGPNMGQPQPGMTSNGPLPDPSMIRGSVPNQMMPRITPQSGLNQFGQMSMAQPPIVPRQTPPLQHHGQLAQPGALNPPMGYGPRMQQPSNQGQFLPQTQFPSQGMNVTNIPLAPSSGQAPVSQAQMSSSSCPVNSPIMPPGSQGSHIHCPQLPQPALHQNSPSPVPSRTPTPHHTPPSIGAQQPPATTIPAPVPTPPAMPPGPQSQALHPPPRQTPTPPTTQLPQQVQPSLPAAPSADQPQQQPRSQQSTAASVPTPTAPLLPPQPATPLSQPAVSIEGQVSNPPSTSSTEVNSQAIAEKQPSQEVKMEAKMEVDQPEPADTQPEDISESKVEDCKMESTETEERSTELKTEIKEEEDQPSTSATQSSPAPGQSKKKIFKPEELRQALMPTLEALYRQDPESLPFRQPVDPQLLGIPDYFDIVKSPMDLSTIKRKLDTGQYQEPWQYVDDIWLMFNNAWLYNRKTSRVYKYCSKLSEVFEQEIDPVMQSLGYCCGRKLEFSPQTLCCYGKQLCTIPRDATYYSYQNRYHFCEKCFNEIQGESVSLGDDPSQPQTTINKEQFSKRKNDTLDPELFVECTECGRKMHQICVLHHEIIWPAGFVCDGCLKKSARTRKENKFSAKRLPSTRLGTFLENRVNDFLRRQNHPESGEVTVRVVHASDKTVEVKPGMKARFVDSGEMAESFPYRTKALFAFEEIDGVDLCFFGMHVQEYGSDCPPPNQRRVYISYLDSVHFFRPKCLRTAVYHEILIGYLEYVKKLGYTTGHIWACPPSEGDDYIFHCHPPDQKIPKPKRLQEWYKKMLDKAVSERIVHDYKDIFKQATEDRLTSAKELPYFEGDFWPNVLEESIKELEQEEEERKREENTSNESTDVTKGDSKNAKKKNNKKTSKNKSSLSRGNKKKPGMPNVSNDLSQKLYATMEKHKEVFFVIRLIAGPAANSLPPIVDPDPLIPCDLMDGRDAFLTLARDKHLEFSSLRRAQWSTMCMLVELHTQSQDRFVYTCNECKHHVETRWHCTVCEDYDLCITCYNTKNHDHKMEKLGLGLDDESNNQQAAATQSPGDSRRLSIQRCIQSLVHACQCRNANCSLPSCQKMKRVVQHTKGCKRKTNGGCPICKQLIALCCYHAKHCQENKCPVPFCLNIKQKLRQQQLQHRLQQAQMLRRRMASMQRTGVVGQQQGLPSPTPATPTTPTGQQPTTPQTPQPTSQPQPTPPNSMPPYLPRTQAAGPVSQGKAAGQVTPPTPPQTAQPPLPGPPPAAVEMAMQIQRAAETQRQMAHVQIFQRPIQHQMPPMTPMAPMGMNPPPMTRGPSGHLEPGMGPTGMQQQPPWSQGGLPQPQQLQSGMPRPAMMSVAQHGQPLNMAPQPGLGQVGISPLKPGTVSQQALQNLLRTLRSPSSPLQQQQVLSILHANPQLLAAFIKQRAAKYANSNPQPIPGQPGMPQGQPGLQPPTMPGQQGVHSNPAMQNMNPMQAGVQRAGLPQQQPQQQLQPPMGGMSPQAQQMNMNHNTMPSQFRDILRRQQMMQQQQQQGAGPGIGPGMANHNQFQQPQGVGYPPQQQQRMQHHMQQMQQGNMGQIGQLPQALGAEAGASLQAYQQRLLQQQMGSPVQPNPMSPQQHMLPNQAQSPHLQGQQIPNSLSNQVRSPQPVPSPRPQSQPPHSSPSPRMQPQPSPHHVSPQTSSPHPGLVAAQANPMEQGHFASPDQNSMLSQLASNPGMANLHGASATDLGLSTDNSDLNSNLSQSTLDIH

With `Cc1cc(O)cc(C)c1C=C1C(=O)N(Cc2ccccc2)C(=O)N(Cc2ccccc2)C1=O`, the inhibition entry in series [1] and in [8] was “inactive” in each case. Besides, the Ki in series [2] amounted to 2000 nM; in series [13] it was 9400 nM. The values for the alphaKi in [2] and in [13] were 5.7 µM and 6.8 µM, respectively. Also, the inhibition result in series [3] and in [6] was “tde” each time. Also, the Stability result in series [4] is reported as “Stable”. For the same compound, in [5], the inhibition entry was “Active”. Besides, the IC50 on CREB-binding protein was 1100 nM; in series [14], 2900 nM. Besides, the outcome in [7] and in [11] was Active. Moreover, the Papp at 24 h in [9] turned out to be 1.9 ×10⁻⁶ cm/s. Also, the Activity result in series [10] is reported as “Non-toxic”. Moreover, the result in series [12] was inactive.
